Literature values in patent publication US20230240327A1, “FUNCTIONAL SOYBEAN MEAL” (CAN TECHNOLOGIES, INC., priority 2020, published 2023).
Where two headings read alike, the source gives them in different places. Each block holds one compound with its values, some of them ahead of it.

How the values were obtained:
microorganisms = conditions: according to several studies; compared with antibiotics
Bacteria = conditions: when in their dissociated form
[1] = Table 7

Compound: Cc1ccc(C(C)C)c(O)c1 [thymol]
antimicrobial activity (microorganisms): stronger than in some antibiotics

Compound: CC(O)C(=O)O (stereo not drawn) [Lactic acid]
Main effects (poultry; 2.00 wt% of feed): Feed to gain ratio significantly improved. Body weight gain.
bactericidal effect (Bacteria): bactericidal effect

Compound: C/C=C/C=C/C(=O)O [Sorbic acid]
Main effects (poultry; 1.12 wt% of feed): Improves feed efficiency.
bactericidal effect (Bacteria): bactericidal effect

Compound: CCC(=O)O [Propionic acid]
bactericidal effect (Bacteria): bactericidal effect

Compound: O=CO [Formic acid]
Main effects (poultry; 0.50 - 1.00 wt% of feed (formic acid)): Reduction of coecal pH and bactericidal effect on Salmonella.
bactericidal effect (Bacteria): bactericidal effect

Compound: O=C(O)/C=C/C(=O)O [Fumaric acid]
Main effects (poultry; 0.50 - 1.00 wt% of feed (fumaric acid)): Improvement in weight gain of broilers.

Compound: Cc1ccc(C(C)C)cc1O [carvacrol]
antimicrobial activity (microorganisms): stronger than in some antibiotics

Compound: C=CCc1ccc(O)c(OC)c1 [eugenol]
antimicrobial activity (microorganisms): stronger than in some antibiotics

Compound: CCCC(=O)O [Butyric acid]
Main effects (poultry; 0.15 wt% of feed (butyric acid)): Maintain the beneficial micro flora

Compound: O=C(O)CC(O)C(=O)O (stereo not drawn) [Malic acid]
Main effects (poultry; 0.50 - 2.00 wt% of feed): Increase in weight gain.

pKa [1]: 5.13
Compound: CCCCCCCCCCCC(=O)O [Lauric acid]

Compound: O=C(O)C(O)C(O)C(=O)O (stereo not drawn) [Tartaric acid]
Main effects (poultry; 0.33 wt% of feed): Improves weight gain.

Compound: CC(C)=CCC/C(C)=C/CO [geraniol]
antimicrobial activity (microorganisms): stronger than in some antibiotics

Compound: O=C(O)c1ccccc1 [Benzoic acid]
Main effects (poultry; 0.20 wt% of feed): Positive influence on growth.

Compound: CCC(=O)O [Propionic acid (buffered), Propionic acid]
Main effects (poultry; 0.15 - 0.20 wt% of feed (buffered propionic acid)): Increase in dressing percentage in female broilers.
